From article PMC9605737, “Identification of 6ω-cyclohexyl-2-(phenylamino carbonylmethylthio)pyrimidin-4(3H)-ones targeting the ZIKV NS5 RNA dependent RNA polymerase” (Frontiers in Chemistry, 2022)

Key:
ZIKV NS5 protein = test: Western blot of ZIKV NS5 protein in infected Vero cells; type: cell-based; conditions: 12.5 μM, 48 h
From the text: (§1) ZIKV E protein is one of the most important structural proteins of ZIKV, which plays an important role in the correct assembly of the virus and evasion of the host’s innate immunity ([Jaimipuk et al., 2022]). We have verified that 4w has a significant inhibitory effect on ZIKV-infected cell lines from different sources at the molecular level, but it is unknown whether it has the same antiviral effect at the protein level. Therefore, in order to explore the inhibitory effect of 4w on ZIKV protein level, we added serially diluted 4w to ZIKV-infected Vero cells for 48 h, collected the total protein for WB experiments, and then detected the effect of 4w on ZIKV E and NS5 protein. At the same time, the inhibitory effect of 4w on ZIKV E protein was verified again by immunofluorescence experiment.
(§2) Vero cells were infected with ZIKV (MOI = 1) at 37°C for 2 h. Next, the different amounts of 4w were added to continue culturing for 48 h to extract the total protein in the cells. The total protein was separated in sodium dodecyl sulfate polyacrylamide gel electrophoresis (SDS-PAGE). […] The antibody signal was recorded and quantified using the Tanon-5200 Multi Imaging System.

ZIKV E protein [1] = test: Immunofluorescence assay of ZIKV E protein in infected Vero cells; type: cell-based, Zika virus; conditions: 25 μM, 72 h
From the text: as §1
Vero cells were seeded at 2 × 10^5 cells/ml in a 24-well plate with cell slides, and 500 μl/well was cultured overnight in a 37°C, 5% CO2 incubator. ZIKV (MOI = 1) was added to infect at 37°C for 2 h, and then discarded the virus. The cells were washed twice with PBS and then added to 500 μl of 4w diluted in concentration gradients. At the same time, virus-only as a positive control and a medium-only as negative control were set. […] Microscopic examinations were performed on a Leica DMI4000B Microsystem (Wetzlar, Germany), and an image was recorded using the system.

ZIKV RNA = test: qRT-PCR viral load in supernatant of ZIKV-infected A549 cells; type: cell-based; conditions: Zika virus, A549, read-out: EC50, inhibition of ZIKV RNA replication
From the text: In order to re-verify the inhibitory effect of 4w on ZIKV at the molecular level, we used ZIKV to infect cell lines of different origins (A549, Vero, Huh7 cells) and then treated with 4w in a concentration gradient. The change of viral load in the supernatant of cells after treatment was detected by qRT-PCR method.
Cells were infected with ZIKV SZ-WIV01 and then treated with 4w. The viral load in the supernatant was detected by Quantitative real-time polymerase chain reaction (qRT-PCR) at in different time periods after infection. Then the RNA from culture supernatant was extracted using the EasyPure ® Viral DNA/RNA Kit (TransGen Biotech, China) following the manufacturer’s instructions. Intracellular RNA extraction was according to trizol method. A one-step qRT-PCR kit RNA-direct™ Realtime PCR Master Mix (TOYOBO, Japan) and TaqMan probe were used to quantify the viral RNA produced. The primers (NS5 ZIKV 1086F: 5′-CCGCTGCCCAACACAAG-3′ and NS5 ZIKV 1086R: 3′-[…] C-5′) and probe (5′-FAM-[…]-TAMRA -3′) were used for amplification of the ZIKV NS5 region. A standard curve of the serial dilutions was used to quantify the viral RNA yield.
The 50% effective concentration (EC50) and 50% cytotoxic concentration (CC50) of the compound were calculated according to the Reed and Muench method, inhibition rate of ZIKV RNA yield- [(1-drug treatment/positive control) × 100]. […]

[2] = MTT cytotoxicity assay in A549 cells; type: cell-based; conditions: human
Experimental: MTT assay was used to detect the toxicity of the compound. Cells were seeded in 96-well plates and cultured overnight. Compounds with different concentrations were added and incubated for 96 h. Then, 20 μl of 5 mg/ml MTT (Sigma-Aldrich, United States) solution was added to each well and kept at 37°C for 4 h. Subsequently, 100 μl of 12% SDS-50% DMF (Sigma-Aldrich, United States) solution was added and incubated overnight at 37°C. After the crystalline formamidine was completely dissolved, the optical density (OD) value was measured using a microplate reader (BioTek, United States) with a wavelength of 570 nm and a reference wavelength of 630 nm.
The 50% effective concentration (EC50) and 50% cytotoxic concentration (CC50) of the compound were calculated according to the Reed and Muench method, inhibition rate of ZIKV RNA yield- [(1-drug treatment/positive control) × 100]. The data and graphs were processed using GraphPad Prism8 software, expressed as mean ± standard deviation (Mean ± SD), comparison between groups using ANOVA, p < 0.05 was considered statistically significant.

HCV NS5B RdRp = conditions: ref Shen (2015); cited from earlier work
ZIKV E protein [3] = test: Western blot of ZIKV E protein in infected Vero cells; type: cell-based, Zika virus; conditions: 12.5 μM, 48 h
From the text: as §1, §2

In the case of CCc1c(C2CCCCC2)nc(SCC(=O)Nc2cc(F)cc(F)c2)[nH]c1=O [Compound 4w, 2-{[4-cyclohexyl-5-ethyl-6-oxo-1,6-dihydropyrimidin-2-yl]thio}-N-(3,5-difluorophenyl)acetamide], the “inhibition of ZIKV NS5 protein expression (WB)” value (ZIKV NS5 protein) is reported as “significantly inhibit”, the “inhibition of ZIKV E protein expression (immunofluorescence)” value (ZIKV E protein [1]) is reported as “completely inhibited” and the EC50 (ZIKV RNA) is reported as 5.18 ± 0.69 µM. The CC50 at 96 h [2] was greater than 200 µM, the IC50 (HCV NS5B RdRp) was 0.102 µM and the “inhibition of ZIKV E protein expression (WB)” value (ZIKV E protein [3]) was “significantly inhibit”.
